The target of this assay is rBIIa/beta 1 sodium channels expressed in Xenopus oocytes (Rattus norvegicus, UniProt P04775). Description: Electrophysiological assay (two-electrode voltage clamp), sodium channel inhibition, inactivated state. Format: cell-based. The note with it: apparent Ki from single point inhibition data; rat brain type IIa/beta 1 channels in Xenopus oocytes; test pulse after 4 second depolarization from -120 mV holding potential; read-out: Ki (inhibition constant for sodium channel inhibition). As for the experimental part:
An electrophysiological assay was used to measure potencies of compounds of the present invention rBIIa/beta 1 sodium channels expressed in Xenopus oocytes.
Preparation of cRNA encoding cloned rat brain type IIa (rBIIa) and beta 1 (β1): cDNA clones encoding the rat brain beta 1 subunit are cloned in house using standard methods, and mRNA are prepared by standard methods. mRNA encoding rBIIa is provided by Dr. A. Golden (UC Irvine). The mRNAs are diluted and stored at −80° C. in 1 μL aliquots until injection.
Preparation of oocytes: Mature female Xenopus laevis are anaesthetized (20–40 min) using 0.15% 3-aminobenzoic acid ethyl ester (MS-222) following established procedures (Woodward, R. M., et al., Mol. Pharmacol. 41:89–103 (1992)).
Two to six ovarian lobes are surgically removed. Oocytes at developmental stages V–VI are dissected from the ovary, wherein the oocytes are still surrounded by enveloping ovarian tissues. Oocytes are defolliculated on the day of surgery by treatment with collagenase (0.5 mg/mL Sigma Type I, or Boehringer Mannheim Type A, for 0.5–1 hr). Treated oocytes are vortexed to dislodge epithelia, washed repeatedly and stored in Barth's medium containing 88 mM NaCl, 1 mM KCl, 0.41 mM CaCl2, 0.33 mM Ca(NO3)2, 0.82 mM MgSO4, 2.4 mM NaHCO3, 5 mM HEPES, pH 7.4 adjusted with 0.1 mg/mL gentamycin sulphate.
Micro-injection of oocytes: Defolliculated oocytes are micro-injected using a Nanoject injection system (Drummond Scientific Co., Broomall, Pa.). Injection pipettes are beveled to minimize clogging. Tip diameter of injection pipettes is 15–35 μm. Oocytes are microinjected with approximately 50 nL 1:10 ratio mixtures of cRNAs for rBIIa and beta 1 respectively.
Electrophysiology: Membrane current responses are recorded in frog Ringer solution containing 115 mM NaCl, 2 mM KCl, 1.8 mM CaCl2, 5 mM HEPES, pH 7.4. Electrical recordings are made using a conventional two-electrode voltage clamp (Dagan TEV-200) over periods ranging between 1–7 days following injection. The recording chamber is a simple gravity fed flow-through chamber (volume […] depending on adjustment of aspirator). Oocytes are placed in the recording chamber, impaled with electrodes and continuously perfused (5–15 mL min^−1) with frog Ringer's solution. […]
Voltage protocols for evoking sodium channel currents: The standard holding potential for whole oocyte clamp is −120 mV. […] Peak currents are measured as the maximum negative current after depolarizing voltage steps. […]
The purpose is to find compounds that are state dependent modifiers of neuronal sodium channels. […] Sodium currents are measured at this test pulse before and after the application of the tested compound. Data is acquired using PCLAMP 8.0 software and analyzed with CLAMPFIT software (Axon instruments). […]

This is an account of results in patent publication US7229993B2, “Aryl substituted pyrimidines and the use thereof” (Euro-Celtique S.A., priority 2002, dated 2007).

Sequence of rBIIa/beta 1 sodium channels expressed in Xenopus oocytes (P04775 whole entry): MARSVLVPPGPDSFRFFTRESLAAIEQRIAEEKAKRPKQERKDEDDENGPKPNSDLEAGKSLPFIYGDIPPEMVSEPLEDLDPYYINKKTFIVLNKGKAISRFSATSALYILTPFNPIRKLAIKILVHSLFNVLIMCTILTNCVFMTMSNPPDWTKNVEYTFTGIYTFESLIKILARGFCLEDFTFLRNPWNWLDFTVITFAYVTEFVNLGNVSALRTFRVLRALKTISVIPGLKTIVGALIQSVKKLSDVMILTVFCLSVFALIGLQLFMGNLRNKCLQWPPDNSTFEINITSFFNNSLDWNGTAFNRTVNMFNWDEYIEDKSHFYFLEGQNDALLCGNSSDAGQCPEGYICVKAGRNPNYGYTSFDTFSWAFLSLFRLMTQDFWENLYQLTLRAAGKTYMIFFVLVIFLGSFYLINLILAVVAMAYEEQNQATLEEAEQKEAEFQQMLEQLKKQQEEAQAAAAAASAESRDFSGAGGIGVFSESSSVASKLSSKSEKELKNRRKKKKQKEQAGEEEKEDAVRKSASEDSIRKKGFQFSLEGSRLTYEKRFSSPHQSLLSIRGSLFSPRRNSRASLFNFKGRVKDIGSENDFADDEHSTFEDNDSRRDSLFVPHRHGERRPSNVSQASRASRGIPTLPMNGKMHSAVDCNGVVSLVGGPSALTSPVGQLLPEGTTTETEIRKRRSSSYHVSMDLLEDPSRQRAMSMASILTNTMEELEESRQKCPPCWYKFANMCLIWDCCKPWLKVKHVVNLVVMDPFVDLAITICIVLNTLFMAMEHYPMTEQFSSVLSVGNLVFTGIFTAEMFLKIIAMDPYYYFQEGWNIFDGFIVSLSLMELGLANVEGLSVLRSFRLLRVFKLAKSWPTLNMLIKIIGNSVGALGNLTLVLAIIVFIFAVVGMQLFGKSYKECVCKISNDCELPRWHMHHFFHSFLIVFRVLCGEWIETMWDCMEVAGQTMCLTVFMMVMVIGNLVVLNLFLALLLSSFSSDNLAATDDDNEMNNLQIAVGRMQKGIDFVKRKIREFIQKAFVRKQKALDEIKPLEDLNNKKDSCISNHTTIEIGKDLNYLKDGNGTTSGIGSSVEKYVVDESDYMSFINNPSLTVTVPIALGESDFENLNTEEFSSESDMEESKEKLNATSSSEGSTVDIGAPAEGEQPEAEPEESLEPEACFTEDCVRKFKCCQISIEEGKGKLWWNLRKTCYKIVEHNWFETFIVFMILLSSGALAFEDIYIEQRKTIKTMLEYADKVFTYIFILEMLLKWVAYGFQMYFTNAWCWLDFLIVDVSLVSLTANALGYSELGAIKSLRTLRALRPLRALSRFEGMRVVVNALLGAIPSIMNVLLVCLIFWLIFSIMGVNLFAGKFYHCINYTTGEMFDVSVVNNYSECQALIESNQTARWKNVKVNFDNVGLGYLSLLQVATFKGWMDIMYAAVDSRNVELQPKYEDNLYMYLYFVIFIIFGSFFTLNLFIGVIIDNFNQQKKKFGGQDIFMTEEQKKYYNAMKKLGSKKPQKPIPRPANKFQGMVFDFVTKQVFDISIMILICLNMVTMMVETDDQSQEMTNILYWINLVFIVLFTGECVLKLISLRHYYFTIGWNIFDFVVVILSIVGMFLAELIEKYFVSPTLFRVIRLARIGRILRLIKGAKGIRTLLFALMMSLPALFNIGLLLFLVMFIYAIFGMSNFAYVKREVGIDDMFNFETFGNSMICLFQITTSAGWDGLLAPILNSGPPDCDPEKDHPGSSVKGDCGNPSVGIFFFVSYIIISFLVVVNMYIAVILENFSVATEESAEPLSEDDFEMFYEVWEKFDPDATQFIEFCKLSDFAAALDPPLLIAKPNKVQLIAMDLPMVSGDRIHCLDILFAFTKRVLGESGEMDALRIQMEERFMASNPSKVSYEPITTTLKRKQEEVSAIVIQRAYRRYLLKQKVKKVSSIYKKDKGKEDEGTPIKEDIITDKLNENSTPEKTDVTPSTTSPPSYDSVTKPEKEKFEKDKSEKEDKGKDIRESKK
Sequence of rBIIa/beta 1 sodium channels expressed in Xenopus oocytes (Q00954 19-218 partner): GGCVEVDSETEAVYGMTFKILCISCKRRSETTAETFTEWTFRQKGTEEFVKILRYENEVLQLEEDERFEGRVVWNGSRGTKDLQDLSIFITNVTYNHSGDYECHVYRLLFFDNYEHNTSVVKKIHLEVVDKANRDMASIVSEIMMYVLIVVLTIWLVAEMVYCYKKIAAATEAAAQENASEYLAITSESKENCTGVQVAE

For “2-(4-(4-fluorophenoxy)phenyl)-4-tert-butyl-6-aminopyrimidin-4-one”, the Ki is 15.6 µM.
Take `Nc1nc(-c2ccc(Oc3ccc(F)cc3)cc2)[nH]c(=O)c1Cc1ccccc1Cl` [2-(4-(4-fluorophenoxy)phenyl)-6-amino-5-(2-chlorobenzyl)pyrimidin-4-one]: the Ki was found to be 30.9 µM.
For `Nc1cc(=O)[nH]c(-c2ccc(Oc3ccc(F)cc3)cc2)n1` [2-(4-(4-fluorophenoxy)phenyl)-6-amino-pyrimidin-4-one] the value was 0.47 µM; for `Nc1nc(-c2ccccc2)[nH]c(=O)c1Cc1ccccc1Cl` [2-phenyl-6-amino-5-(2-chlorobenzyl)pyrimidin-4-one], 49.2 µM.
